Structures can show the parent of a compound that is named as a salt.
How the values were obtained:
[1] = Ca^2+ compared with Sr^2+; cited from earlier work
[2] = with increasing atomic number (decreasing ionic size); cited from earlier work
[3] = Lethal dose determination, intravenous, mortality within 30 days; conditions: in vivo, DMCRYP salt×NaBr (x=2.5-8) as prepared according to Example I
Method: Healing power of the composition has been evidenced by animal tests. In this way, the minimum and average lethal doses (LD0.1 and LD50, respectively) have been established.
For the determination of lethal doses, the active ingredient was administered intravenously at increasing concentrations to the animals. Minimum and average lethal doses were calculated from the mortality within 30 days. […] On every occasion, one tenth of this dose was introduced into each animal in this experiment.

Hygroscopicity = type: physicochemical; conditions: sodium salt versus lithium salt
Water solubility = type: physicochemical; conditions: product of Example 1
[4] = Whole-body retention of Sr-85 introduced into the peritoneal cavity, mice (FIG. 1); type: in vivo, Swiss mice; conditions: equimolar concentration, isotope in peritoneal cavity
Excerpt: (§1) In order to test the effect of DMCRYP on enhancing the decorporation of radiostroncium and the rare earth metal radiocerium from the body, male and female Swiss mice and Wistar rats were selected. […] In the comparative tests, a known polyaminopolycarboxylic acid-type decorporant (decorporating agent), calcium-trisodium salt of DTPA (diethylenetriaminopentacetic acid) (Heyl and Co., Berlin) was used at equimolar concentration. The amount of residual isotopes in the animal organisms was determined by whole-body activity measurements in every 1 to 4 days and was expressed as per cent of activity introduced.

[5] = Whole-body retention of cerium-144 introduced peritoneally (FIG. 6, Example 6); type: in vivo; conditions: female Swiss mice
Excerpt: as §1
Treatments were repeated twice, on the Days 2 and 4.

[6] = Whole-body retention of Sr-85 introduced into the peritoneal cavity, female Wistar rats (FIG. 2, Example 2); type: in vivo; conditions: equimolar concentration
Excerpt: as §1

[7] = Whole-body retention of radiostroncium in skin or subcutaneous interstitial tissues (FIG. 3, Example 3); type: in vivo; conditions: subcutaneous/skin isotope
Excerpt: as §1

Compound: O=C(O)CN1CCOCCOCCN(CC(=O)O)CCOCCOCC1 [1,10-diaza-4,7,13,16-tetraoxacyclooctadecane-N,N'-diacetic acid]
- Relative stability of Ca^2+ and Sr^2+ complexes [1]: identical within the experimental error
- Stability constants of rare earth metal complexes, trend [2]: decrease with the increasing atomic number

Compound: O=C(O)C(C(=O)O)N1CCOCCOCCN(C(C(=O)O)C(=O)O)CCOCCOCC1 [DMCRYP, 1,4,10,13-tetraoxa-7,16-diazacyclooctadecane-N,N'-dimalonic acid tetrasodium salt]
- LD50 at 720 h [3]: 1050 µmol/kg
- Hygroscopicity (Hygroscopicity; listed as sodium salt): not hygroscopic
- Water solubility (Water solubility): very soluble

Compound: O=C(O)CN(CCN(CC(=O)O)CC(=O)O)CCN(CC(=O)O)CC(=O)O [DTPA, diethylenetriaminopentacetic acid]
- Removal of Sr isotope from the animal body [4]: ineffective
- Whole-body retention of cerium-144 ([5]; Day 2, after first treatment, 100 μmole/kg i.v. 30 minutes after isotope, control 85.9): 72.8%
- Effect of second and third treatments ([5]; 100 μmole/kg, Days 2 and 4): ineffective
- Retention values compared to control [6]: lower than those in the control but the difference was not statistically significant
- Relative stability of Ca^2+ and Sr^2+ complexes [1]: considerably more stable with Ca^2+ than with Sr^2+
- Effect of treatment on whole-body retention [7]: ineffective

Compound: O=C(O)CN(CCN(CC(=O)O)CC(=O)O)CC(=O)O [EDTA, ethylenediaminetetraacetic acid]
- Relative stability of Ca^2+ and Sr^2+ complexes [1]: considerably more stable with Ca^2+ than with Sr^2+

Compound: O=C(O)C(C(=O)O)N1CCOCCOCCN(C(C(=O)O)C(=O)O)CCOCCOCC1 [lithium salt]
- Hygroscopicity (Hygroscopicity): hygroscopic
